Assay results reported in PubChem BioAssay (NCI).
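The concentration for 50% growth inhibition is given as GI50. Definition used: TGI = concentration required for complete inhibition of growth.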

Key:
Assay in all cases: NCI anticancer screen, dose series, 384-well format
[1] = tested on: 786-0 renal
[2] = tested on: A498 renal
[3] = tested on: A549 NSCLC
[4] = tested on: ACHN renal
[5] = tested on: BT-549 breast
[6] = tested on: CAKI-1 renal
[7] = tested on: CCRF-CEM leukemia
[8] = tested on: DU-145 prostate
[9] = tested on: EKVX NSCLC
[10] = tested on: HCT-116 colon
[11] = tested on: HCT-15 colon
[12] = tested on: HL-60(TB) leukemia
[13] = tested on: HOP-62 NSCLC
[14] = tested on: HOP-92 NSCLC
[15] = tested on: HS 578T breast
[16] = tested on: HT29 colon
[17] = tested on: IGROV1 ovarian
[18] = tested on: K-562 leukemia
[19] = tested on: KM12 colon
[20] = tested on: LOX IMVI melanoma
[21] = tested on: M14 melanoma
[22] = tested on: MALME-3M melanoma
[23] = tested on: MCF7 breast
[24] = tested on: MDA-MB-231 breast
[25] = tested on: MDA-MB-435 melanoma
[26] = tested on: MDA-MB-468 breast
[27] = tested on: MOLT-4 leukemia
[28] = tested on: NCI-H226 lung
[29] = tested on: NCI-H23 lung
[30] = tested on: NCI-H322M lung
[31] = tested on: NCI-H522 lung
[32] = tested on: NCI/ADR-RES ovarian
[33] = tested on: OVCAR-3 ovarian
[34] = tested on: OVCAR-4 ovarian
[35] = tested on: OVCAR-5 ovarian
[36] = tested on: OVCAR-8 ovarian
[37] = tested on: PC-3 prostate
[38] = tested on: RPMI-8226 leukemia
[39] = tested on: RXF 393 renal
[40] = tested on: SF-268 CNS
[41] = tested on: SF-295 CNS
[42] = tested on: SF-539 CNS
[43] = tested on: SK-MEL-2 melanoma
[44] = tested on: SK-MEL-28 melanoma
[45] = tested on: SK-OV-3 ovarian
[46] = tested on: SN12C renal
[47] = tested on: SNB-19 CNS
[48] = tested on: SNB-75 CNS
[49] = tested on: SW-620 colon
[50] = tested on: T-47D breast
[51] = tested on: TK-10 renal
[52] = tested on: U251 glioblastoma
[53] = tested on: UACC-257 melanoma
[54] = tested on: UACC-62 melanoma
[55] = tested on: UO-31 renal
[56] = tested on: COLO 205 colon
[57] = tested on: HCC-2998 colon
[58] = tested on: NCI-H460 NSCLC
[59] = tested on: SK-MEL-5 melanoma
[60] = tested on: SR leukemia

Compound: C1CN1c1nc(N2CC2)nc(N2CC2)n1
- GI50 [1]: 2.59 µM
- TGI [1]: 11.9 µM
- GI50 [2]: 3.36 µM
- TGI [2]: 18.6 µM
- GI50 [3]: 3.42 µM
- TGI [3]: 19.5 µM
- GI50 [4]: 1.55 µM
- TGI [4]: 4.03 µM
- GI50 [5]: 2.16 µM
- TGI [5]: 11.5 µM
- GI50 [6]: 1.46 µM
- TGI [6]: 14.2 µM
- GI50 [7]: 0.449 µM
- TGI [7]: 1.35 µM
- GI50 [8]: 1.04 µM
- TGI [8]: 5.94 µM
- GI50 [9]: 15.5 µM
- TGI [9]: 31 µM
- GI50 [10]: 1.61 µM
- TGI [10]: 16.6 µM
- GI50 [11]: 2.34 µM
- TGI [11]: 14.1 µM
- GI50 [12]: 0.144 µM
- TGI [12]: 0.3 µM
- GI50 [13]: 0.589 µM
- TGI [13]: 2.75 µM
- GI50 [14]: 6.61 µM
- TGI [14]: 58.6 µM
- GI50 [15]: 11.6 µM
- TGI [15]: 24 µM
- GI50 [16]: 2.75 µM
- TGI [16]: 15.3 µM
- GI50 [17]: 10.8 µM
- TGI [17]: 22.9 µM
- GI50 [18]: 3.96 µM
- TGI [18]: 17.4 µM
- GI50 [19]: 2.47 µM
- TGI [19]: 54.9 µM
- GI50 [20]: 2.25 µM
- TGI [20]: 14.8 µM
- GI50 [21]: 1.74 µM
- TGI [21]: 10.5 µM
- GI50 [22]: 4.87 µM
- TGI [22]: 18.6 µM
- GI50 [23]: 1.51 µM
- TGI [23]: 18 µM
- GI50 [24]: 11.7 µM
- TGI [24]: 25.2 µM
- GI50 [25]: 10.8 µM
- TGI [25]: 23.1 µM
- GI50 [26]: 0.139 µM
- TGI [26]: 0.586 µM
- GI50 [27]: 0.0877 µM
- TGI [27]: 0.21 µM
- GI50 [28]: 4.42 µM
- TGI [28]: 19.9 µM
- GI50 [29]: 1.22 µM
- TGI [29]: 4.3 µM
- GI50 [30]: 13.3 µM
- TGI [30]: 27.9 µM
- GI50 [31]: 1.36 µM
- TGI [31]: 2.87 µM
- GI50 [32]: 3.02 µM
- TGI [32]: 15.1 µM
- GI50 [33]: 3.13 µM
- TGI [33]: 14.5 µM
- GI50 [34]: 14.7 µM
- TGI [34]: 29 µM
- GI50 [35]: 5.96 µM
- TGI [35]: 22 µM
- GI50 [36]: 1.39 µM
- TGI [36]: 15.9 µM
- GI50 [37]: 10.7 µM
- TGI [37]: 23.4 µM
- GI50 [38]: 0.736 µM
- TGI [38]: 3.11 µM
- GI50 [39]: 3.11 µM
- TGI [39]: 13.1 µM
- GI50 [40]: 0.68 µM
- TGI [40]: 10.2 µM
- GI50 [41]: 1.08 µM
- TGI [41]: 2.84 µM
- GI50 [42]: 1.46 µM
- TGI [42]: 4.3 µM
- GI50 [43]: 8.35 µM
- TGI [43]: 18.8 µM
- GI50 [44]: 10.3 µM
- TGI [44]: 22.1 µM
- GI50 [45]: 2.76 µM
- TGI [45]: 12.2 µM
- GI50 [46]: 1.21 µM
- TGI [46]: 10.3 µM
- GI50 [47]: 3.73 µM
- TGI [47]: 18.1 µM
- GI50 [48]: 1.67 µM
- TGI [48]: 10.3 µM
- GI50 [49]: 2.84 µM
- TGI [49]: 20 µM
- GI50 [50]: 5.49 µM
- TGI [50]: 22.7 µM
- GI50 [51]: 14.3 µM
- TGI [51]: 35 µM
- GI50 [52]: 1.42 µM
- TGI [52]: 13.3 µM
- GI50 [53]: 12.5 µM
- TGI [53]: 25.2 µM
- GI50 [54]: 1.34 µM
- TGI [54]: 11.6 µM
- GI50 [55]: 5.17 µM
- TGI [55]: 17.9 µM

Compound: CN1CCN(c2ccc3nc(-c4c5cccccc-5[nH]c4=O)[nH]c3c2)CC1
- GI50 [1]: 7.07 µM
- TGI [1]: 28.1 µM
- GI50 [2]: 12.7 µM
- TGI [2]: 26.3 µM
- GI50 [3]: 6.49 µM
- TGI [3]: 38.1 µM
- GI50 [4]: 4.63 µM
- TGI [4]: 16.8 µM
- GI50 [5]: 4.48 µM
- TGI [5]: 14.6 µM
- GI50 [6]: 5.23 µM
- TGI [6]: 18.2 µM
- GI50 [7]: 3.47 µM
- TGI [7]: 10.7 µM
- GI50 [56]: 5.27 µM
- TGI [56]: 17.7 µM
- GI50 [8]: 6.01 µM
- TGI [8]: 26.7 µM
- GI50 [9]: 10.1 µM
- TGI [9]: 33.3 µM
- GI50 [57]: 7.05 µM
- TGI [57]: 29.1 µM
- GI50 [10]: 12.1 µM
- TGI [10]: 25.3 µM
- GI50 [11]: 7.04 µM
- TGI [11]: 26.4 µM
- GI50 [12]: 3.83 µM
- TGI [12]: 12.4 µM
- GI50 [13]: 4.43 µM
- TGI [13]: 20.9 µM
- GI50 [14]: 3.99 µM
- TGI [14]: 16.7 µM
- GI50 [15]: 4.73 µM
- TGI [15]: 18.4 µM
- GI50 [16]: 6.92 µM
- TGI [16]: 23.9 µM
- GI50 [17]: 3.84 µM
- TGI [17]: 15.6 µM
- GI50 [18]: 4.85 µM
- TGI [18]: 16.7 µM
- GI50 [19]: 0.371 µM
- TGI [19]: 10.7 µM
- GI50 [20]: 10.7 µM
- TGI [20]: 22.7 µM
- GI50 [21]: 9.46 µM
- TGI [21]: 21.4 µM
- GI50 [22]: 11 µM
- TGI [22]: 23.1 µM
- GI50 [23]: 7.26 µM
- TGI [23]: 21.3 µM
- GI50 [24]: 5.78 µM
- TGI [24]: 22.1 µM
- GI50 [25]: 11.9 µM
- TGI [25]: 31.9 µM
- GI50 [26]: 5.61 µM
- TGI [26]: 21 µM
- GI50 [27]: 1.8 µM
- TGI [27]: 3.2 µM
- GI50 [28]: 4.07 µM
- TGI [28]: 18 µM
- GI50 [29]: 7.46 µM
- TGI [29]: 26.8 µM
- GI50 [30]: 10.4 µM
- TGI [30]: 33.6 µM
- GI50 [58]: 3.65 µM
- TGI [58]: 13.8 µM
- GI50 [31]: 9.06 µM
- TGI [31]: 29.6 µM
- GI50 [32]: 16.7 µM
- TGI [32]: 47.1 µM
- GI50 [33]: 12.3 µM
- TGI [33]: 28.2 µM
- GI50 [34]: 10.3 µM
- TGI [34]: 38.6 µM
- GI50 [35]: 10.5 µM
- TGI [35]: 33.4 µM
- GI50 [37]: 6.81 µM
- TGI [37]: 25.3 µM
- GI50 [38]: 10 µM
- TGI [38]: 21.7 µM
- GI50 [39]: 2.7 µM
- TGI [39]: 8.68 µM
- GI50 [40]: 10.3 µM
- TGI [40]: 31.8 µM
- GI50 [41]: 12.2 µM
- TGI [41]: 32 µM
- GI50 [42]: 3.66 µM
- TGI [42]: 13.2 µM
- GI50 [43]: 28.6 µM
- TGI [43]: 44.4 µM
- GI50 [44]: 15.9 µM
- TGI [44]: 35 µM
- GI50 [59]: 8.18 µM
- TGI [59]: 21 µM
- GI50 [45]: 5.76 µM
- TGI [45]: 23.7 µM
- GI50 [46]: 3.39 µM
- TGI [46]: 17.8 µM
- GI50 [47]: 10.3 µM
- TGI [47]: 39.2 µM
- GI50 [48]: 3.71 µM
- TGI [48]: 17.6 µM
- GI50 [60]: 2.17 µM
- TGI [60]: 4.45 µM
- GI50 [49]: 6.59 µM
- TGI [49]: 24.9 µM
- GI50 [50]: 16.9 µM
- TGI [50]: 37.9 µM
- GI50 [51]: 4.51 µM
- TGI [51]: 19.3 µM
- GI50 [52]: 5.62 µM
- TGI [52]: 22.2 µM
- GI50 [53]: 9.05 µM
- TGI [53]: 21.4 µM
- GI50 [54]: 8.99 µM
- TGI [54]: 21.2 µM
- GI50 [55]: 6.3 µM
- TGI [55]: 19.2 µM
